Experimental data reported in patent publication US8129557B2, “Phosphonic acid diester derivative and method for producing thereof” (priority 2005, dated 2012).
Marks after values point to notes of the source that are not given here.

What was measured:
[1] = biological target: T1, E-coli GGT (Escherichia coli, UniProt P18956); test: Second-order rate constant kon of E-coli GGT inactivation (continuous or discontinuous assay); type: biochemical, Escherichia coli K-12; details: for kon E-coli GGT: second-order rate constant for enzyme inactivation, pH 5.5, 25° C.
T1 construct: was used as a purified enzyme of E-coli GGT; made in house
T1 sequence (P18956 26-390 limits assumed): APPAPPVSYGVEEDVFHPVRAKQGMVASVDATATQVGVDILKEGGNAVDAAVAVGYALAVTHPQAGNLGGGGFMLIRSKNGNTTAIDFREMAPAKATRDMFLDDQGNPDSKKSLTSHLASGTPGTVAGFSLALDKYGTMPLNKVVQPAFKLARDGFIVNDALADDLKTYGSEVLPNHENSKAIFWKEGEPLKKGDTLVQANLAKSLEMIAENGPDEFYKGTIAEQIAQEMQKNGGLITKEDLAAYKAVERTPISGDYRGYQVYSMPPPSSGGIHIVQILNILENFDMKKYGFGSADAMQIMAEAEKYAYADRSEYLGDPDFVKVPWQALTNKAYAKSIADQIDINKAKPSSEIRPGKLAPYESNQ
T1 sequence (P18956 391-580 limits assumed): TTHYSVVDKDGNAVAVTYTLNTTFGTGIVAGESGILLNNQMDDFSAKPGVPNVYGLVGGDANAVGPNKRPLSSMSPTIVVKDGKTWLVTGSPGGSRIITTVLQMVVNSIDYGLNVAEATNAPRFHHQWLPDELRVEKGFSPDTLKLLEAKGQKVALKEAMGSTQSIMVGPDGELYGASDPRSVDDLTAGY
From the text: (§1) Purified enzyme of E-coli GGT and crude enzyme of human GGT were employed as GGT samples for an inhibition experiment. The enzyme whose physicochemical properties are described in the Document (Hideyuki Suzuki, Hidehiko Kumagai, Tatsurokukro Tochikura “gamma-Glutamyltranspeptidase from Escherichia coli K-12: Purification and Properties” Journal of Bacteriology, December 1986, Vol. 168, No. 3, p. 1325-1331) was used as a purified enzyme of E-coli GGT. Enzyme [HC-GTP (product number), 603AA (lot number)] manufactured by Asahi Kasei Co., Ltd. was used as a crude enzyme of human GGT. The crude enzyme of human GGT contained a large amount of bovine serum albumin (BSA) to stabilize the enzyme, and the GGT concentration was 1% or lower.
In the hydrolytic assay of E. coli GGT, 10 μL of a […] enzyme solution was added to a 100 mM succinic acid-sodium hydroxide buffer solution (pH 5.5) in a total volume of 1 mL containing 100 μL of 2 μM substrate aqueous solution. The product, 7-amino-4-methylcoumarin (AMC), released along with the enzyme reaction was traced continuously at 25° C. using a fluorospectrophotometer F-2000 manufactured by Hitachi Ltd. (excitation wavelength: 350 nm, emission wavelength: 440 nm). The AMC concentration was separately measured by forming a calibration curve showing the relation of the fluorescence intensity (F) and the concentration (C) using standard solutions and was calculated from the relational expression (1) of the fluorescence intensity alteration (ΔF) and concentration alteration (ΔC).
(§2) Next, a second-order rate constant for enzyme inactivation kon was measured by either a continuous assay or a discontinuous assay. Both of the continuous and discontinuous assay for measuring inhibitory activity to GGT were carried out under a pseudo-first-order reaction condition.
(§3) In the continuous assay, while the temperature was kept at 25° C., the 100 mM succinic acid-sodium hydroxide buffer solutions (pH 5.5) containing an inhibitor in various concentrations and the substrate were preincubated for equilibrium. Herein, 0.2 μM of the substrate was used for the case of E-coli GGT and 0.4 μM of the substrate was used for the case of human GGT. Thereafter, the enzyme solution of the E-coli GGT was added in a manner that the final concentration became 0.04 nM and also the human GGT crude enzyme solution was added in a manner that the final concentration became 5 μg/mL. Accordingly, the reaction was started and the release of AMC (increase of the fluorescence intensity) was continuously traced for 10 minutes.
(§4) The fluorescence intensity data obtained from the respective curves was applied to the following pseudo-first-order rate equation (2) and the observed pseudo-first-order rate constant for enzyme inactivation (kobs) was calculated by nonlinear regression analysis [Stein, R. L. et al. Biochemistry 26, 2682-2689 (1987)].
(§5) [Equation 2] [P]=[P]∞[1−exp(−kobst)] (2)
(§6) When the kobs was plotted against to the inhibitor concentration ([I]), a linear relation was obtained until the maximum extent of the experimentally possible inhibitor concentration. Therefore, the second-order rate constant for enzyme inactivation kon was calculated using the following equation (3) deduced from the kinetic mechanism.
(§7) [drawing 37] [Equation 3] kobs=kon[I]/(1+[S]/Km) (3)
(§8) Herein, S denotes 7-(γ-L-glutamylamino)-4-methylcoumarin. The substrate concentration [S] for E-coli GGT is 0.2 μM and the Km value is 0.2 μM. […] The kinetic data was obtained by nonlinear regression analysis using Kaleida graph, a program produced by Synergy Software.
Further, in the discontinuous assay, an inhibitor in various concentrations was dissolved in 100 mM succinic acid-sodium hydroxide buffer solution (pH 5.5) and the enzyme solution was added to the resulting buffer solutions. […]

[2] = biological target: T2, human GGT (Homo sapiens, UniProt P19440); test: Second-order rate constant kon of human GGT inactivation (continuous or discontinuous assay); type: biochemical; details: for kon Human GGT: second-order rate constant for enzyme inactivation, pH 5.5, 25° C.; for plot of log kon (human GGT) against pKa of aryl group, FIG. 4: position relative to the straight line
T2 construct: purchased Asahi Kasei Co., Ltd. HC-GTP (lot 603AA)
T2 sequence (P19440 1-380 limits assumed): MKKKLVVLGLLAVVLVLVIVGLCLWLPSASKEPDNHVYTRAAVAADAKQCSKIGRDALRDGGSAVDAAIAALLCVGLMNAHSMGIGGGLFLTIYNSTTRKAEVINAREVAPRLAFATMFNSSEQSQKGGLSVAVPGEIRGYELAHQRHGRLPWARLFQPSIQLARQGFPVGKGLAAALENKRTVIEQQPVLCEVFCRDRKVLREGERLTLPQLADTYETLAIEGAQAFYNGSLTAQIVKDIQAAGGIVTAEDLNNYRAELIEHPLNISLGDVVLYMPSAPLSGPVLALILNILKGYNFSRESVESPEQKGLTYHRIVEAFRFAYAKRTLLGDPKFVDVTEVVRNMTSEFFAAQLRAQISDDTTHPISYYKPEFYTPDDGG
T2 sequence (P19440 381-569 limits assumed): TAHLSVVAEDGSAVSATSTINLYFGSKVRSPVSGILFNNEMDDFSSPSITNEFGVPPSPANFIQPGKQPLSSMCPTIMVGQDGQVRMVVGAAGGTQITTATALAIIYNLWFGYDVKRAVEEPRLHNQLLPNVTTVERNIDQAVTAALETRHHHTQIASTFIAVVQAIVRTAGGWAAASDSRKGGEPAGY
From the text: as §1
In the hydrolytic assay of human GGT, the measurement was carried out in the same manner as that in the hydrolytic assay of E-coli GGT, except that the substrate concentration was changed to […] and therefore, the explanation of the common portions was omitted.
as §2, §3, §4, §5, §6, §7, §8
Further, in the discontinuous assay, an inhibitor in various concentrations was dissolved in 100 mM succinic acid-sodium hydroxide buffer solution (pH 5.5) and the enzyme solution was added to the resulting buffer solutions. Herein, in the case of E-coli GGT, the enzyme solution was added in a manner that the final concentration became 0.4 nM and also the human GGT crude enzyme solution was added in a manner that the final concentration became 0.5 mg/mL. Accordingly, the reaction of the inhibitor and each GGT was conducted at 25° C. An aliquot (10 μL) of each of the reaction solutions were sampled at every specified time to measure the remaining enzyme activity by the above-mentioned enzyme activation method. The remaining enzyme activity at every time was analyzed by nonlinear regression using the pseudo-first-order rate equation (4) of enzyme inactivation to calculate the value of kobs.
[Equation 4] αt/α0=exp(−kobst) (4) […]

[3] = Chemical stability: hydrolysis ratio after storage in water at room temperature; type: physicochemical
Experimental: Herein, the hydrolysis ratios of the reactive compounds of Examples 1 to 11 were measured after the respective compounds were stored in water at room temperature. In this connection, the compounds other than the compound of Example 10 were stored in water for 12 hours and the compound of Example 10 was stored in water for 112 hours.

[4] = Hydrolysis ratio of Example 7 in alkaline, neutral or acidic solvent; type: physicochemical; details: for Hydrolysis ratio (%): after 12 hours
Experimental: Herein, the compound of Example 7 was dissolved in a solvent shown in Table 4 and kept at 23.5° C., and the hydrolysis ratio of the compound of Example 7 was measured after 12 hours.

[5] = stored in water at room temperature for 12 hours

Row | SMILES | kon E-coli GGT [1] [M^−1S^−1] | kon Human GGT [2] [M^−1S^−1] | Hydrolysis ratio (%) [3, 5] [%] | also measured
1 | N[C@H](C(=O)O)[C@@H]1CC(Cl)=NO1 [Comparative Example 1, (aS, 5S)-acivicin, reference compound] | 4210 ± 10 | 0.40 ± 0.02 |  | 
2 | COP(=O)(CCC(N)C(=O)O)Oc1ccc(C)cc1 (stereo not shown) [Example 1, 2-amino-4-[methyl(4-methylphenyl)phosphono]butanoic Acid] | 23 | 0.24 | 0 | 
3 | COc1ccc(OP(=O)(CCC(N)C(=O)O)OC)cc1 (stereo not shown) [Example 2, 2-amino-4-[(4-methoxyphenyl)(methyl)phosphono]butanoic Acid] | 19.5 | 0.16 | 0 | 
4 | COP(=O)(CCC(N)C(=O)O)Oc1ccccc1 (stereo not shown) [Example 3, 2-amino-4-[methyl(phenyl)phosphono]butanoic Acid] | 115 | 0.40 | 0 | 
5 | COP(=O)(CCC(N)C(=O)O)Oc1ccc(Cl)cc1 (stereo not shown) [Example 4, 2-amino-4-[(4-chlorophenyl)(methyl)phosphono]butanoic Acid] | 607 | 5.0 | 0 | 
6 | COP(=O)(CCC(N)C(=O)O)Oc1ccc(C(F)(F)F)cc1 (stereo not shown) [Example 5, 2-amino-4-[methyl(4-trifluoromethylphenyl)phosphono]butanoic acid] | 2800 | 11.5 | 0 | 
7 | COP(=O)(CCC(N)C(=O)O)Oc1ccc(C#N)cc1 (stereo not shown) [Example 6, 2-amino-4-[(4-cyanophenyl)(methyl)phosphono]butanoic Acid] | 12000 | 45.9 | 12.3 | 
8 | COP(=O)(CCC(N)C(=O)O)Oc1ccc([N+](=O)[O-])cc1 (stereo not shown) [Example 7, 2-amino-4-[methyl(4-nitrophenyl)phosphono]butanoic Acid] | 35000 | 125.1 | 48.6 | Hydrolysis ratio (%) ([4]; 0.1 N CF3COOD, pH <1, 23.5° C.): 0%; Hydrolysis ratio (%) ([4]; 0.1 N CH3COOD, pH 2.9, 23.5° C.): 40%; Hydrolysis ratio (%) ([4]; 0.1 N DCl + MeOH, pH <1, 23.5° C.): 0%; Hydrolysis ratio (%) ([4]; 0.1 N DCl, pH <1, 23.5° C.): 0%; Hydrolysis ratio (%) ([4]; 0.1 N Na2CO3, pH 11.6, 23.5° C.): 100%; Hydrolysis ratio (%) ([4]; 0.1 N NaHCO3, pH 8.3, 23.5° C.): 100%; Hydrolysis ratio (%) ([4]; D2O, pH 7, 23.5° C.): 49%; hydrolysis ratio in words ([4]; under the acidic condition): low; hydrolysis ratio in words ([4]; under the alkaline condition): high
9 | COP(=O)(CCC(N)C(=O)O)Oc1ccc2c(C)cc(=O)oc2c1 (stereo not shown) [Example 8, 2-amino-4-[methyl(4-methylumbelliferyl)phosphono]butanoic Acid] | 15700 | 2400 | 6.0 | mode of inhibition of E-coli GGT (activity plot, FIG. 1) ([1]; AMC fluorescence against time): irreversibly inactivate; mode of inhibition of human GGT (activity plot, FIG. 2) ([2]; AMC fluorescence against time): irreversibly inactivate; plot of log kon (human GGT) against pKa of aryl group, FIG. 4 [2]: deviate upward
10 | CCCCOP(=O)(CCC(N)C(=O)O)Oc1ccccc1 (stereo not shown) [Example 9, 2-amino-4-[butyl(phenyl)phosphono]butanoic Acid] | 9.0 | 0.023 | 0 | 
11 | CCC(OP(=O)(CCC(N)C(=O)O)Oc1ccccc1)C(=O)NCC(=O)O (stereo not shown) [Example 10, 2-amino-4-[1-[N-(carboxymethyl)carbamoyl]propyl(phenyl)phosphono]butanoic acid] | 80.9 | 74.5 |  | plot of log kon (human GGT) against pKa of aryl group, FIG. 4 [2]: deviate upward; Hydrolysis ratio (%) ([3]; stored in water at room temperature for 112 hours): 37.5* %
12 | COP(=O)(CCC(N)C(=O)O)Oc1ccc(CC(=O)O)cc1 (stereo not shown) [Example 12, 2-amino-4-{[4-(carboxymethyl)phenyl](methyl)phosphono}butanoic Acid] | 200 | 0.33 |  | 
13 | COP(=O)(CCC(N)C(=O)O)Oc1ccc(C(=O)O)cc1 (stereo not shown) [Example 13, 2-amino-4-[4-carboxyphenyl(methyl)phosphono]butanoic Acid] | 3200 | 5.2 |  | 
14 | COP(=O)(CCC(N)C(=O)O)Oc1cccc([N+](=O)[O-])c1 (stereo not shown) [Example 14, 2-amino-4-[methyl(3-nitrophenyl)phosphono]butanoic Acid] | 5100 | 49 |  | 
15 | COP(=O)(CCC(N)C(=O)O)Oc1cccc(C(=O)O)c1 (stereo not shown) [Example 15, 2-amino-4-[3-carboxyphenyl(methyl)phosphono]butanoic Acid] | 450 | 1.63 |  | 
16 | COP(=O)(CCC(N)C(=O)O)Oc1cccc(CCC(=O)O)c1 (stereo not shown) [Example 16, 2-amino-4-{[3-(2-carboxyethyl)phenyl](methyl)phosphono}butanoic Acid] | 71 | 7.67 |  | plot of log kon (human GGT) against pKa of aryl group, FIG. 4 [2]: deviate upward
17 | NC(CCP(=O)(Oc1ccccc1)Oc1ccccc1)C(=O)O (stereo not shown) [Example 17, 2-amino-4-(diphenylphosphono)butanoic Acid] | 28 | 0.41 |  | 
